ChEMBL document CHEMBL1125035, “Synthesis and biological activity of novel vitamin D analogues: 24,24-difluoro-25-hydroxy-26,27-dimethylvitamin D3 and 24,24-difluoro-1 alpha,25-dihydroxy-26,27-dimethylvitamin D3” (1990)

What was measured:
Rattus norvegicus [1] = species on record: Rattus norvegicus; assay: Calcium binding protein induction in duodenal organ culture at a concentration of 100 nM in Male Albino rats; type: functional
Rattus norvegicus [2] = species on record: Rattus norvegicus; assay: Calcium binding protein induction in duodenal organ culture at a concentration of 10 nM in Male Albino rats; type: functional
Rattus norvegicus [3] = species on record: Rattus norvegicus; assay: Calcium binding protein induction in duodenal organ culture at a concentration of 1 nM in Male Albino rats; type: functional
Rattus norvegicus [4] = assay: Ability to mobilize Bone-Calcium transport, following the administration of compound in rats at a concentration of 5 pmol at 72 hr.; type: functional, organism-based
Rattus norvegicus [5] = assay: Ability to mobilize Bone-Calcium transport, following the administration of compound in rats at a concentration of 5000 pmol at 47 hr.; type: functional, organism-based
Rattus norvegicus [6] = assay: Ability to mobilize Bone-Calcium transport, following the administration of compound in rats at a concentration of 5000 pmol at 72 hr.; type: functional, organism-based
Rattus norvegicus [7] = assay: Ability to mobilize Bone-Calcium transport, following the administration of compound in rats at a concentration of 500 pmol at 72 hr.; type: functional, organism-based
Rattus norvegicus [8] = assay: Ability to mobilize Bone-Calcium transport, following the administration of compound in rats at a concentration of 50 pmol at 13 hr.; type: functional, organism-based
Rattus norvegicus [9] = assay: Ability to mobilize Bone-Calcium transport, following the administration of compound in rats at a concentration of 50 pmol at 72 hr.; type: functional, organism-based
Rattus norvegicus [10] = assay: Ability to mobilize Bone-Calcium transport, following the administration of compound in rats at a concentration of 5 pmol at 47 hr.; type: functional, organism-based
Rattus norvegicus [11] = assay: Ability to stimulate intestinal-calcium transport by the administration of compound in rats at a concentration of 50 pmol at 72 hr.; type: functional, Intestine
Rattus norvegicus [12] = assay: Ability to stimulate intestinal-calcium transport by the administration of compound in rats at a concentration of 5 pmol at 13 hr.; type: functional, Intestine
Rattus norvegicus [13] = assay: Ability to stimulate intestinal-calcium transport by the administration of compound in rats at a concentration of 5 pmol at 47 hr.; type: functional, Intestine
Rattus norvegicus [14] = assay: Ability to stimulate intestinal-calcium transport by the administration of compound in rats at a concentration of 50 pmol at 13 hr.; type: functional, Intestine
Rattus norvegicus [15] = assay: Ability to stimulate intestinal-calcium transport by the administration of compound in rats at a concentration of 50 pmol at 47 hr.; type: functional, Intestine
Rattus norvegicus [16] = assay: Ability to stimulate intestinal-calcium transport by the administration of compound in rats at a concentration of 5000 pmol at 47 hr.; type: functional, Intestine
Rattus norvegicus [17] = assay: Ability to stimulate intestinal-calcium transport by the administration of compound in rats at a concentration of 5000 pmol at 72 hr.; type: functional, Intestine
Rattus norvegicus [18] = assay: Ability to stimulate intestinal-calcium transport by the administration of compound in rats at a concentration of 500 pmol at 13 hr.; type: functional, Intestine
Rattus norvegicus [19] = assay: Ability to stimulate intestinal-calcium transport by the administration of compound in rats at a concentration of 500 pmol at 47 hr.; type: functional, Intestine
Rattus norvegicus [20] = assay: Ability to mobilize Bone-Calcium transport, following the administration of compound in rats at a concentration of 5000 pmol at 13 hr.; type: functional, organism-based
[21] = Relative potency against calcium binding protein induction in duodenal organ culture at a concentration of 10 nM compared to 1,25-(OH)2-D3 in Male Albino rats; type: functional
Rattus norvegicus [22] = assay: Ability to mobilize Bone-Calcium transport, following the administration of compound in rats at a concentration of 5 pmol at 13 hr.; type: functional, organism-based
Rattus norvegicus [23] = assay: Ability to mobilize Bone-Calcium transport, following the administration of compound in rats at a concentration of 5 pmol at 69 hr.; type: functional, organism-based
Rattus norvegicus [24] = assay: Ability to stimulate intestinal-calcium transport by the administration of compound in rats at a concentration of 5000 pmol at 12 hr.; type: functional, Intestine
Rattus norvegicus [25] = assay: Ability to mobilize Bone-Calcium transport, following the administration of compound in rats at a concentration of 5000 pmol at 48 hr.; type: functional, organism-based
Rattus norvegicus [26] = assay: Ability to mobilize Bone-Calcium transport, following the administration of compound in rats at a concentration of 5000 pmol at 69 hr.; type: functional, organism-based
Rattus norvegicus [27] = assay: Ability to mobilize Bone-Calcium transport, following the administration of compound in rats at a concentration of 500 pmol at 12 hr.; type: functional, organism-based
Rattus norvegicus [28] = assay: Ability to mobilize Bone-Calcium transport, following the administration of compound in rats at a concentration of 500 pmol at 69 hr.; type: functional, organism-based
Rattus norvegicus [29] = assay: Ability to mobilize Bone-Calcium transport, following the administration of compound in rats at a concentration of 50 pmol at 12 hr.; type: functional, organism-based
Rattus norvegicus [30] = assay: Ability to mobilize Bone-Calcium transport, following the administration of compound in rats at a concentration of 50 pmol at 48 hr.; type: functional, organism-based
Rattus norvegicus [31] = assay: Ability to mobilize Bone-Calcium transport, following the administration of compound in rats at a concentration of 50 pmol at 69 hr.; type: functional, organism-based
Rattus norvegicus [32] = assay: Ability to mobilize Bone-Calcium transport, following the administration of compound in rats at a concentration of 5 pmol at 48 hr.; type: functional, organism-based
Rattus norvegicus [33] = assay: Ability to stimulate intestinal-calcium transport by the administration of compound in rats at a concentration of 50 pmol at 69 hr.; type: functional, Intestine
Rattus norvegicus [34] = assay: Ability to stimulate intestinal-calcium transport by the administration of compound in rats at a concentration of 5 pmol at 12 hr.; type: functional, Intestine
Rattus norvegicus [35] = assay: Ability to stimulate intestinal-calcium transport by the administration of compound in rats at a concentration of 5 pmol at 48 hr.; type: functional, Intestine
Rattus norvegicus [36] = assay: Ability to stimulate intestinal-calcium transport by the administration of compound in rats at a concentration of 5 pmol at 69 hr.; type: functional, Intestine
Rattus norvegicus [37] = assay: Ability to stimulate intestinal-calcium transport by the administration of compound in rats at a concentration of 50 pmol at 12 hr.; type: functional, Intestine
Rattus norvegicus [38] = assay: Ability to stimulate intestinal-calcium transport by the administration of compound in rats at a concentration of 5000 pmol at 48 hr.; type: functional, Intestine
Rattus norvegicus [39] = assay: Ability to stimulate intestinal-calcium transport by the administration of compound in rats at a concentration of 500 pmol at 48 hr.; type: functional, Intestine
Rattus norvegicus [40] = assay: Ability to stimulate intestinal-calcium transport by the administration of compound in rats at a concentration of 500 pmol at 69 hr.; type: functional, Intestine

| Compound | Serum Ca2+ (Rattus norvegicus [4]) [mg/dL] | Serum Ca2+ (Rattus norvegicus [5]) [mg/dL] | Serum Ca2+ (Rattus norvegicus [6]) [mg/dL] | Serum Ca2+ (Rattus norvegicus [7]) [mg/dL] | Serum Ca2+ (Rattus norvegicus [8]) [mg/dL] | Serum Ca2+ (Rattus norvegicus [9]) [mg/dL] | Serum Ca2+ (Rattus norvegicus [10]) [mg/dL] | Serosal/Mucosal Ca (Rattus norvegicus [11]) | Serosal/Mucosal Ca (Rattus norvegicus [12]) | Serosal/Mucosal Ca (Rattus norvegicus [13]) | Serosal/Mucosal Ca (Rattus norvegicus [14]) | Serosal/Mucosal Ca (Rattus norvegicus [15]) | Serosal/Mucosal Ca (Rattus norvegicus [16]) | Serosal/Mucosal Ca (Rattus norvegicus [17]) | Serosal/Mucosal Ca (Rattus norvegicus [18]) | Serosal/Mucosal Ca (Rattus norvegicus [19]) | Serum Ca2+ (Rattus norvegicus [20]) [mg/dL] | Serum Ca2+ (Rattus norvegicus [22]) [mg/dL] | Serum Ca2+ (Rattus norvegicus [23]) [mg/dL] | Serosal/Mucosal Ca (Rattus norvegicus [24]) | also measured |
| --- | --- | --- | --- | --- | --- | --- | --- | --- | --- | --- | --- | --- | --- | --- | --- | --- | --- | --- | --- | --- | --- |
| C=C1CC[C@H](O)C/C1=C/C=C1\CCC[C@]2(C)[C@@H]([C@H](C)CCC(F)(F)C(O)(CC)CC)CC[C@@H]12 | 4.2 | 6.16 | 5.84 | 4.38 | 4.14 | 4.64 | 4.34 | 2.84 | 2.3 | 2.59 | 2.18 | 3.29 | 11.06 | 9.39 | 5.85 | 8.04 | 5.92 | 4.2 | – | – | Ca2+ binding protein (Rattus norvegicus [1]): 66.7 ug (100mg of duodenum)-1; Ca2+ binding protein (Rattus norvegicus [2]): 22.4 ug (100mg of duodenum)-1; Ca2+ binding protein (Rattus norvegicus [3]): 10.1 ug (100mg of duodenum)-1; Relative potency [21]: 4.5 |
| C=C1/C(=C\C=C2/CCC[C@]3(C)[C@@H]([C@H](C)CCC(F)(F)C(O)(CC)CC)CC[C@@H]23)C[C@@H](O)C[C@@H]1O | – | – | – | – | – | – | – | – | – | – | – | – | – | – | – | – | – | – | 4.13 | 8.39 | Serum Ca2+ (Rattus norvegicus [25]): 5.86 mg/dL; Serum Ca2+ (Rattus norvegicus [26]): 4.82 mg/dL; Serum Ca2+ (Rattus norvegicus [27]): 6.12 mg/dL; Serum Ca2+ (Rattus norvegicus [28]): 4.87 mg/dL; Serum Ca2+ (Rattus norvegicus [29]): 5.5 mg/dL; Serum Ca2+ (Rattus norvegicus [30]): 4.08 mg/dL; Serum Ca2+ (Rattus norvegicus [31]): 4.02 mg/dL; Serum Ca2+ (Rattus norvegicus [32]): 3.98 mg/dL; Serosal/Mucosal Ca (Rattus norvegicus [33]): 3.04; Serosal/Mucosal Ca (Rattus norvegicus [34]): 2.85; Serosal/Mucosal Ca (Rattus norvegicus [35]): 2.09; Serosal/Mucosal Ca (Rattus norvegicus [36]): 2.34; Serosal/Mucosal Ca (Rattus norvegicus [37]): 4.41; Serosal/Mucosal Ca (Rattus norvegicus [38]): 8; Serosal/Mucosal Ca (Rattus norvegicus [39]): 5.39; Serosal/Mucosal Ca (Rattus norvegicus [40]): 5.46 |
| C=C1CC[C@H](O)C/C1=C/C=C1\CCC[C@]2(C)[C@@H]([C@H](C)CCCC(C)(C)O)CC[C@@H]12 [CALCIFEDIOL ANHYDROUS] | 4.32 | 6.24 | 6.5 | 5.04 | 4.86 | 4.52 | 4.66 | 8.87 | 2.22 | 3.41 | 3.75 | 11.54 | 11.01 | 11.48 | 3.6 | 9.99 | 6.82 | 4.4 | – | – | – |
| C=C1/C(=C\C=C2/CCC[C@]3(C)[C@@H]([C@H](C)CCCC(C)(C)O)CC[C@@H]23)C[C@@H](O)C[C@@H]1O [CALCITRIOL] | – | – | – | – | – | – | – | – | – | – | – | – | – | – | – | – | – | – | 4.12 | 7 | Serum Ca2+ (Rattus norvegicus [25]): 4.78 mg/dL; Serum Ca2+ (Rattus norvegicus [26]): 4.78 mg/dL; Serum Ca2+ (Rattus norvegicus [27]): 6.1 mg/dL; Serum Ca2+ (Rattus norvegicus [28]): 4.48 mg/dL; Serum Ca2+ (Rattus norvegicus [29]): 5.58 mg/dL; Serum Ca2+ (Rattus norvegicus [30]): 4.54 mg/dL; Serum Ca2+ (Rattus norvegicus [31]): 4.55 mg/dL; Serum Ca2+ (Rattus norvegicus [32]): 4.08 mg/dL; Serosal/Mucosal Ca (Rattus norvegicus [33]): 5.69; Serosal/Mucosal Ca (Rattus norvegicus [34]): 2.62; Serosal/Mucosal Ca (Rattus norvegicus [35]): 3.19; Serosal/Mucosal Ca (Rattus norvegicus [36]): 2.75; Serosal/Mucosal Ca (Rattus norvegicus [37]): 3.23; Serosal/Mucosal Ca (Rattus norvegicus [38]): 7.22; Serosal/Mucosal Ca (Rattus norvegicus [39]): 5.98; Serosal/Mucosal Ca (Rattus norvegicus [40]): 5.67 |
